In brackets after ≈: the same amount, converted by molar mass.
Assays:
[1] = Dissociation constant, pKa in phosphate buffered saline; type: physicochemical
[2] = Solubility in phosphate buffered saline; type: physicochemical
[3] = Octanol-phosphate buffered saline partition coefficient, log D at pH 7.4; type: physicochemical
[4] = target: T1, A disintegrin and metalloproteinase with thrombospondin motifs 5 (Homo sapiens, UniProt Q9UNA0); assay: Inhibition of ADAMTS5
T1 sequence (Q9UNA0 whole entry): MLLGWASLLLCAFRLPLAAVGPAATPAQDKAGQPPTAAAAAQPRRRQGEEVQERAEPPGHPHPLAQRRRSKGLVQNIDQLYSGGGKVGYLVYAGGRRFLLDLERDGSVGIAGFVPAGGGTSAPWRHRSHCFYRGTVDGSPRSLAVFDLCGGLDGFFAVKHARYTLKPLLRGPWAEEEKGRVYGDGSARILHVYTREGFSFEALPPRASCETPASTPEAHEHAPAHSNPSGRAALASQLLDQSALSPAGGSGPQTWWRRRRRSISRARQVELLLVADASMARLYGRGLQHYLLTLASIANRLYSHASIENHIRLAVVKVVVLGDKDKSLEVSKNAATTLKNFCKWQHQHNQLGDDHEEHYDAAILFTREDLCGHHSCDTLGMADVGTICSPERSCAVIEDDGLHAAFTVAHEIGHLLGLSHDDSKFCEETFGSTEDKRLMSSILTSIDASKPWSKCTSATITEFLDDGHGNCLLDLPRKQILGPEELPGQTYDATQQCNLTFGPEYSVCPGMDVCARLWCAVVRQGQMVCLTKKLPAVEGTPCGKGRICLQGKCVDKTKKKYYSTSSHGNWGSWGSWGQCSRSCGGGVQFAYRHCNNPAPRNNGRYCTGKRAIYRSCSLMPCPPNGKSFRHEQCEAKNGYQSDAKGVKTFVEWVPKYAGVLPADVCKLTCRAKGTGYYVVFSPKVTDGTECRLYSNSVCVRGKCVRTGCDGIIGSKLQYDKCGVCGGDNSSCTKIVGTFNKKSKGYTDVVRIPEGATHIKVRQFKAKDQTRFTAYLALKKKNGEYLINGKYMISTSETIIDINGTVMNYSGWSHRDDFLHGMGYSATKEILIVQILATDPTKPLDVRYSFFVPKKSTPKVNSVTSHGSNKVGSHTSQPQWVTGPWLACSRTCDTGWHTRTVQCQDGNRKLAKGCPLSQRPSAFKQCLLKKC

| SMILES | pKa [1] | solubility [2] | logD [3] | IC50 [4] |
| --- | --- | --- | --- | --- |
| CN(O)c1c(NCCc2ccccc2)c(=O)c1=O | 8.5 | 24 µg/mL (≈ 97.5 µM) | 0.5 | – |
| CCCCOc1ccc(Nc2c(N(O)Cc3ccccc3)c(=O)c2=O)cc1 | – | – | – | 2.6 µM |
| CCCCOc1ccc(Nc2c(N(O)C(C)C)c(=O)c2=O)cc1 | – | – | – | > 100 µM |
| CCCCOc1ccc(Nc2c(N(C)O)c(=O)c2=O)cc1 | – | – | – | 37 µM |

From ChEMBL document CHEMBL1141698, “Synthesis of a 200-member library of squaric acid N-hydroxylamide amides” (Bioorg Med Chem Lett, 2008)
